In brackets after ≈: the same amount, converted by molar mass. Activity calls are given as the source filed them. The rule behind the calls is not given here.
Tested on: Aspergillus niger
Test: Growth inhibition of Aspergillus niger at 4 mg/ml after 7 days by poisoned-food technique
Format: functional
Conditions: 168 h, read-out: GI

SMILES	inhibition of growth at 4000 µg/mL
Cc1cc(-c2cn(-c3ccc([N+](=O)[O-])cc3)nc2-c2ccc(F)cc2)n(-c2ccccc2)n1	44.4%
COc1ccc(-c2nn(-c3ccc([N+](=O)[O-])cc3)cc2/C=C(\Br)C(C)=O)cc1	45.5%
Cc1cc(-c2cn(-c3ccccc3)nc2-c2ccc(Cl)cc2)n(-c2ccccc2)n1	48.8%
CC(=O)/C(Br)=C/c1cn(-c2ccccc2)nc1-c1ccc(C)cc1	51.1%
Cc1cc(-c2cn(-c3ccc([N+](=O)[O-])cc3)nc2-c2ccccc2)n(-c2ccccc2)n1	43.3%
Cc1cc(-c2cn(-c3ccccc3)nc2-c2ccc([N+](=O)[O-])cc2)n(-c2ccccc2)n1	51.1%
Cc1cc(-c2cn(-c3ccccc3)nc2-c2ccccc2)n(-c2ccccc2)n1	44.4%
CC(=O)/C(Br)=C/c1cn(-c2ccc([N+](=O)[O-])cc2)nc1-c1ccc(F)cc1	48.8%
CC(=O)/C(Br)=C/c1cn(-c2ccccc2)nc1-c1ccc([N+](=O)[O-])cc1	48.8%
CC(=O)/C(Br)=C/c1cn(-c2ccccc2)nc1-c1ccc(Cl)cc1	50%

Tested on: Aspergillus flavus
Test: Growth inhibition of Aspergillus flavus at 4 mg/ml after 7 days by poisoned-food technique
Format: functional
Conditions: 168 h, read-out: GI

SMILES	inhibition of growth at 4000 µg/mL
Cc1cc(-c2cn(-c3ccc([N+](=O)[O-])cc3)nc2-c2ccc(F)cc2)n(-c2ccccc2)n1	47.7%
COc1ccc(-c2nn(-c3ccc([N+](=O)[O-])cc3)cc2/C=C(\Br)C(C)=O)cc1	50%
Cc1cc(-c2cn(-c3ccccc3)nc2-c2ccc(Cl)cc2)n(-c2ccccc2)n1	51.1%
CC(=O)/C(Br)=C/c1cn(-c2ccccc2)nc1-c1ccc(C)cc1	52.2%
Cc1cc(-c2cn(-c3ccc([N+](=O)[O-])cc3)nc2-c2ccccc2)n(-c2ccccc2)n1	45.5%
Cc1cc(-c2cn(-c3ccccc3)nc2-c2ccc([N+](=O)[O-])cc2)n(-c2ccccc2)n1	53.3%
Cc1cc(-c2cn(-c3ccccc3)nc2-c2ccccc2)n(-c2ccccc2)n1	46.6%
CC(=O)/C(Br)=C/c1cn(-c2ccc([N+](=O)[O-])cc2)nc1-c1ccc(F)cc1	50%
CC(=O)/C(Br)=C/c1cn(-c2ccccc2)nc1-c1ccc([N+](=O)[O-])cc1	52.2%
CC(=O)/C(Br)=C/c1cn(-c2ccccc2)nc1-c1ccc(Cl)cc1	45.5%

Tested on: Bacillus subtilis
Test: Antibacterial activity against Bacillus subtilis MTCC 121 after 24 hr by macrodilution tube method
Format: functional
Conditions: MTCC 121, 24 h

SMILES	MIC
Cc1cc(-c2cn(-c3ccc([N+](=O)[O-])cc3)nc2-c2ccc(F)cc2)n(-c2ccccc2)n1	128 µg/mL (≈ 291 µM)
COc1ccc(-c2nn(-c3ccc([N+](=O)[O-])cc3)cc2/C=C(\Br)C(C)=O)cc1	128 µg/mL (≈ 289 µM)
Cc1cc(-c2cn(-c3ccccc3)nc2-c2ccc(Cl)cc2)n(-c2ccccc2)n1	128 µg/mL (≈ 312 µM)
CC(=O)/C(Br)=C/c1cn(-c2ccccc2)nc1-c1ccc(C)cc1	128 µg/mL (≈ 336 µM)
Cc1cc(-c2cn(-c3ccc([N+](=O)[O-])cc3)nc2-c2ccccc2)n(-c2ccccc2)n1	256 µg/mL (≈ 607 µM)
Cc1cc(-c2cn(-c3ccccc3)nc2-c2ccc([N+](=O)[O-])cc2)n(-c2ccccc2)n1	64 µg/mL (≈ 152 µM)
Cc1cc(-c2cn(-c3ccccc3)nc2-c2ccccc2)n(-c2ccccc2)n1	128 µg/mL (≈ 340 µM)
O=C(O)c1cn(C2CC2)c2cc(N3CCNCC3)c(F)cc2c1=O [CIPROFLOXACIN]	5 µg/mL (≈ 15.1 µM)
CC(=O)/C(Br)=C/c1cn(-c2ccc([N+](=O)[O-])cc2)nc1-c1ccc(F)cc1	128 µg/mL (≈ 298 µM)
CC(=O)/C(Br)=C/c1cn(-c2ccccc2)nc1-c1ccc([N+](=O)[O-])cc1	128 µg/mL (≈ 310 µM)
CC(=O)/C(Br)=C/c1cn(-c2ccccc2)nc1-c1ccc(Cl)cc1	128 µg/mL (≈ 319 µM)

Tested on: Staphylococcus aureus
Test: Antibacterial activity against Staphylococcus aureus MTCC 96 after 24 hr by macrodilution tube method
Format: functional
Conditions: MTCC 96, 24 h

SMILES	MIC
Cc1cc(-c2cn(-c3ccc([N+](=O)[O-])cc3)nc2-c2ccc(F)cc2)n(-c2ccccc2)n1	256 µg/mL (≈ 583 µM)
COc1ccc(-c2nn(-c3ccc([N+](=O)[O-])cc3)cc2/C=C(\Br)C(C)=O)cc1	128 µg/mL (≈ 289 µM)
Cc1cc(-c2cn(-c3ccccc3)nc2-c2ccc(Cl)cc2)n(-c2ccccc2)n1	256 µg/mL (≈ 623 µM)
CC(=O)/C(Br)=C/c1cn(-c2ccccc2)nc1-c1ccc(C)cc1	64 µg/mL (≈ 168 µM)
Cc1cc(-c2cn(-c3ccc([N+](=O)[O-])cc3)nc2-c2ccccc2)n(-c2ccccc2)n1	256 µg/mL (≈ 607 µM)
Cc1cc(-c2cn(-c3ccccc3)nc2-c2ccc([N+](=O)[O-])cc2)n(-c2ccccc2)n1	64 µg/mL (≈ 152 µM)
Cc1cc(-c2cn(-c3ccccc3)nc2-c2ccccc2)n(-c2ccccc2)n1	128 µg/mL (≈ 340 µM)
O=C(O)c1cn(C2CC2)c2cc(N3CCNCC3)c(F)cc2c1=O [CIPROFLOXACIN]	5 µg/mL (≈ 15.1 µM)
CC(=O)/C(Br)=C/c1cn(-c2ccc([N+](=O)[O-])cc2)nc1-c1ccc(F)cc1	128 µg/mL (≈ 298 µM)
CC(=O)/C(Br)=C/c1cn(-c2ccccc2)nc1-c1ccc([N+](=O)[O-])cc1	128 µg/mL (≈ 310 µM)
CC(=O)/C(Br)=C/c1cn(-c2ccccc2)nc1-c1ccc(Cl)cc1	256 µg/mL (≈ 637 µM)

Tested on: Escherichia coli
Test: Antibacterial activity against Escherichia coli MTCC 1652 at 2 mg/ml after 24 hr by agar well diffusion method
Format: functional, organism-based
Conditions: not given

SMILES	Activity
Cc1cc(-c2cn(-c3ccc([N+](=O)[O-])cc3)nc2-c2ccc(F)cc2)n(-c2ccccc2)n1	inactive
COc1ccc(-c2nn(-c3ccc([N+](=O)[O-])cc3)cc2/C=C(\Br)C(C)=O)cc1	inactive
Cc1cc(-c2cn(-c3ccccc3)nc2-c2ccc(Cl)cc2)n(-c2ccccc2)n1	inactive
CC(=O)/C(Br)=C/c1cn(-c2ccccc2)nc1-c1ccc(C)cc1	inactive
Cc1cc(-c2cn(-c3ccc([N+](=O)[O-])cc3)nc2-c2ccccc2)n(-c2ccccc2)n1	inactive
Cc1cc(-c2cn(-c3ccccc3)nc2-c2ccc([N+](=O)[O-])cc2)n(-c2ccccc2)n1	inactive
Cc1cc(-c2cn(-c3ccccc3)nc2-c2ccccc2)n(-c2ccccc2)n1	inactive
CC(=O)/C(Br)=C/c1cn(-c2ccc([N+](=O)[O-])cc2)nc1-c1ccc(F)cc1	inactive
CC(=O)/C(Br)=C/c1cn(-c2ccccc2)nc1-c1ccc([N+](=O)[O-])cc1	inactive
CC(=O)/C(Br)=C/c1cn(-c2ccccc2)nc1-c1ccc(Cl)cc1	inactive

Tested on: Bacillus subtilis
Test: Antibacterial activity against Bacillus subtilis MTCC 121 at 2 mg/ml after 24 hr by agar well diffusion method
Format: functional
Conditions: MTCC 121, 24 h, read-out: DIZ

SMILES	zone of inhibition at 2000 µg/mL
Cc1cc(-c2cn(-c3ccc([N+](=O)[O-])cc3)nc2-c2ccc(F)cc2)n(-c2ccccc2)n1	15.6 mm
COc1ccc(-c2nn(-c3ccc([N+](=O)[O-])cc3)cc2/C=C(\Br)C(C)=O)cc1	16 mm
Cc1cc(-c2cn(-c3ccccc3)nc2-c2ccc(Cl)cc2)n(-c2ccccc2)n1	16.3 mm
CC(=O)/C(Br)=C/c1cn(-c2ccccc2)nc1-c1ccc(C)cc1	17 mm
Cc1cc(-c2cn(-c3ccc([N+](=O)[O-])cc3)nc2-c2ccccc2)n(-c2ccccc2)n1	14.3 mm
Cc1cc(-c2cn(-c3ccccc3)nc2-c2ccc([N+](=O)[O-])cc2)n(-c2ccccc2)n1	18.6 mm
Cc1cc(-c2cn(-c3ccccc3)nc2-c2ccccc2)n(-c2ccccc2)n1	15.6 mm
O=C(O)c1cn(C2CC2)c2cc(N3CCNCC3)c(F)cc2c1=O [CIPROFLOXACIN]	24 mm
CC(=O)/C(Br)=C/c1cn(-c2ccc([N+](=O)[O-])cc2)nc1-c1ccc(F)cc1	17.3 mm
CC(=O)/C(Br)=C/c1cn(-c2ccccc2)nc1-c1ccc([N+](=O)[O-])cc1	17.6 mm
CC(=O)/C(Br)=C/c1cn(-c2ccccc2)nc1-c1ccc(Cl)cc1	16.3 mm

Tested on: Staphylococcus aureus
Test: Antibacterial activity against Staphylococcus aureus MTCC 96 at 2 mg/ml after 24 hr by agar well diffusion method
Format: functional
Conditions: MTCC 96, 24 h, read-out: DIZ

SMILES	zone of inhibition at 2000 µg/mL
Cc1cc(-c2cn(-c3ccc([N+](=O)[O-])cc3)nc2-c2ccc(F)cc2)n(-c2ccccc2)n1	13.6 mm
COc1ccc(-c2nn(-c3ccc([N+](=O)[O-])cc3)cc2/C=C(\Br)C(C)=O)cc1	15.6 mm
Cc1cc(-c2cn(-c3ccccc3)nc2-c2ccc(Cl)cc2)n(-c2ccccc2)n1	14.3 mm
CC(=O)/C(Br)=C/c1cn(-c2ccccc2)nc1-c1ccc(C)cc1	18.3 mm
Cc1cc(-c2cn(-c3ccc([N+](=O)[O-])cc3)nc2-c2ccccc2)n(-c2ccccc2)n1	13.6 mm
Cc1cc(-c2cn(-c3ccccc3)nc2-c2ccc([N+](=O)[O-])cc2)n(-c2ccccc2)n1	17.6 mm
Cc1cc(-c2cn(-c3ccccc3)nc2-c2ccccc2)n(-c2ccccc2)n1	16.3 mm
O=C(O)c1cn(C2CC2)c2cc(N3CCNCC3)c(F)cc2c1=O [CIPROFLOXACIN]	26 mm
CC(=O)/C(Br)=C/c1cn(-c2ccc([N+](=O)[O-])cc2)nc1-c1ccc(F)cc1	16.6 mm
CC(=O)/C(Br)=C/c1cn(-c2ccccc2)nc1-c1ccc([N+](=O)[O-])cc1	16 mm
CC(=O)/C(Br)=C/c1cn(-c2ccccc2)nc1-c1ccc(Cl)cc1	14.6 mm

Tested on: Pseudomonas aeruginosa
Test: microbe, parasite or virus in culture
Conditions: MTCC 741, 24 h, read-out: DIZ
Description: Antibacterial activity against Pseudomonas aeruginosa MTCC 741 at 2 mg/ml after 24 hr by agar well diffusion method

SMILES	zone of inhibition at 2000 µg/mL
O=C(O)c1cn(C2CC2)c2cc(N3CCNCC3)c(F)cc2c1=O [CIPROFLOXACIN]	25.3 mm
